Results: article PMC9120017, “Inhibition mechanism of the chloride channel TMEM16A by the pore blocker 1PBC” (Nature Communications, 2022)
pIC50: −log10 of the molar value. Like-named read-outs stand apart in the source and are kept apart here.

Biological target: T1, mouse TMEM16A mutant V543A (Mus musculus, UniProt Q8BHY3, V543A)
T1 construct: expressed in transfected cells; host or cells: HEK293T
T1 sequence (Q8BHY3 1-960 V543A): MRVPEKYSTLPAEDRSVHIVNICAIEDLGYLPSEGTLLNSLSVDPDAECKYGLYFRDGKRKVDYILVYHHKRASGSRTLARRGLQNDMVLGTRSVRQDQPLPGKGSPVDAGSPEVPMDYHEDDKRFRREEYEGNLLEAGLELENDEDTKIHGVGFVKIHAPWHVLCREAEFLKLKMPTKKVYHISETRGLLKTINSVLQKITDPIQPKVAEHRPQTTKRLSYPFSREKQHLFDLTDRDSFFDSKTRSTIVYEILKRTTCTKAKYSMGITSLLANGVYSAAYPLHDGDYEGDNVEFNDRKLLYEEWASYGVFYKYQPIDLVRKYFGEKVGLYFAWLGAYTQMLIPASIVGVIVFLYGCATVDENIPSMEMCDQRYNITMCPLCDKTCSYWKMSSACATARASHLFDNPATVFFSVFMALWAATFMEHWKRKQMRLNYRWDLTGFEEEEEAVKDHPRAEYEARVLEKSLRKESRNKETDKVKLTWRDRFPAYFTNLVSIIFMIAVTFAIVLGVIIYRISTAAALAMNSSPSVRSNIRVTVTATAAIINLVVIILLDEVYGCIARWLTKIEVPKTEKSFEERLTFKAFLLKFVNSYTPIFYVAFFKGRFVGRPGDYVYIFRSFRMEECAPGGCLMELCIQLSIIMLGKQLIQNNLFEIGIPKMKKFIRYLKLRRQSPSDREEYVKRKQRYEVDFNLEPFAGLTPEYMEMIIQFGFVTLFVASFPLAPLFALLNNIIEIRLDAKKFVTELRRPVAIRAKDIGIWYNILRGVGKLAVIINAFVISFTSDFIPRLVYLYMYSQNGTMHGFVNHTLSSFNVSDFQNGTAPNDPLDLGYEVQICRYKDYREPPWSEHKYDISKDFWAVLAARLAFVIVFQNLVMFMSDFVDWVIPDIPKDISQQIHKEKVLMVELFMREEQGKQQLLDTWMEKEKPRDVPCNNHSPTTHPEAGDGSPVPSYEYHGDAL
Experiment: Inside-out patch recording of 1PBC block, mutant V543A
Format: cell-based
Details: for remaining activity at 100 µM: 100 µM 1PBC
Experimental: HEK293T cells (ATCC CRL-1573) were maintained in Dulbecco’s modified Eagle’s medium (DMEM; Sigma-Aldrich) supplemented with 10 U ml^−1 penicillin, 0.1 mg ml^−1 streptomycin (Sigma-Aldrich), 2 mM L-glutamine (Sigma-Aldrich), and 10% FBS (Sigma-Aldrich) in a humidified atmosphere containing 5% CO2 at 37 °C. HEK293S GnTI^− cells (ATCC CRL-3022) were maintained in HyClone HyCell TransFx-H medium (GE Healthcare) supplemented with 10 U ml^−1 penicillin, 0.1 mg ml^−1 streptomycin, 4 mM L-glutamine, 0.15% poloxamer 188 (Sigma-Aldrich), and 1% FBS in an atmosphere containing 5% CO2 at 185 rpm at 37 °C. The ac splice variant of mouse TMEM16A (UniProt ID: Q8BHY3), mouse TMEM16B (UniProt ID: Q8CFW1), or mouse TMEM16F (UniProt ID: Q6P9J9) bearing a 3C cleavage site, a Venus YFP, a Myc tag, and a Streptavidin-binding peptide (SBP) downstream of the open reading frame in a modified pcDNA3.1 vector (Invitrogen) were used as described previously[21],[31]. Mutations were introduced using a modified QuikChange method[58] and were verified by sequencing.
HEK293T cells were transfected with 3–4 μg DNA per 6 cm Petri dish using the calcium phosphate co-precipitation method and were used within 24–96 h after transfection. Recordings were performed on inside-out patches excised from HEK293T cells expressing the construct of interest. Patch pipettes were pulled from borosilicate glass capillaries (O.D. 1.5 mm, I.D. 0.86 mm, Sutter Instrument) and were fire-polished with a microforge (Narishige) before use. Pipette resistance was typically 3–8 MΩ when filled with the recording solutions detailed below. Seal resistance was typically 4 GΩ or higher. Voltage-clamp recordings were made using Axopatch 200B, Digidata 1550, and Clampex 10.7 (Molecular Devices). Analog signals were filtered with the in-built 4-pole Bessel filter at 10 kHz and were digitized at 20 kHz. Solution exchange was achieved using a gravity-fed system through a theta glass pipette mounted on an ultra-fast piezo-driven stepper (Siskiyou). […] All recordings were performed at 20 °C.
A symmetrical ionic condition was used throughout. Stock solution with Ca^2+-EGTA contained 150 mM NaCl, 5.99 mM Ca(OH)2, 5 mM EGTA, and 10 mM HEPES at pH 7.40. Stock solution with EGTA contained 150 mM NaCl, 5 mM EGTA, and 10 mM HEPES at pH 7.40. Free Ca^2+ concentrations were adjusted by mixing the stock solutions at the required ratios calculated using the WEBMAXC program (http://web.stanford.edu/~cpatton/webmaxcS.htm). Patch pipettes were filled with the stock solution with Ca^2+-EGTA, which has a free Ca^2+ concentration of 1 mM. 1PBC (ChemBridge) stock was reconstituted in anhydrous DMSO (Sigma-Aldrich) at 100 mM and stored at −20 °C. Working solutions with 1PBC were prepared by serial dilution. Unless otherwise stated, experiments were performed at a saturating Ca^2+ concentration as shown in Supplementary Table 1 and the primary data were corrected for current rundown as described previously[21],[25].
Concentration-response relations, obtained from the ratio of the I-V plots before and after the application of the blocker, were fitted to the Hill equation,1 I/Imax=1/1+IC50/[blocker]^h where I/Imax is the normalized current responses, IC50 defines the concentration at which inhibition is at its half-maximum, and h is the Hill coefficient.

pIC50 (0 mV, 15 µM Ca2+): 4.95 | remaining activity at 3 µM (3 µM 1PBC, +80 mV, saturating Ca2+ (15 µM), read-out: I/Imax): 76.2% | remaining activity at 3 µM (3 µM 1PBC, -80 mV, saturating Ca2+ (15 µM), read-out: I/Imax): 86.2% | remaining activity at 10 µM (10 µM 1PBC, +80 mV, saturating Ca2+ (15 µM), read-out: I/Imax): 42.8% | remaining activity at 10 µM (10 µM 1PBC, -80 mV, saturating Ca2+ (15 µM), read-out: I/Imax): 67.5% | remaining activity at 30 µM (30 µM 1PBC, +80 mV, saturating Ca2+ (15 µM), read-out: I/Imax): 20.1% | remaining activity at 30 µM (30 µM 1PBC, -80 mV, saturating Ca2+ (15 µM), read-out: I/Imax): 43.8% | remaining activity at 100 µM (+80 mV, saturating Ca2+ (15 µM), read-out: I/Imax): 6.35% | remaining activity at 100 µM (-80 mV, saturating Ca2+ (15 µM), read-out: I/Imax): 18.7% | remaining activity at 3 µM (1PBC 3, 0 mV, read-out: fraction of unblocked current): 79.2% | remaining activity at 3 µM (1PBC 3, 20 mV, read-out: fraction of unblocked current): 77.2% | remaining activity at 3 µM (1PBC 3, 40 mV, read-out: fraction of unblocked current): 76.3% | remaining activity at 3 µM (1PBC 3, 60 mV, read-out: fraction of unblocked current): 75.5% | remaining activity at 3 µM (1PBC 3, 80 mV, read-out: fraction of unblocked current): 76.2% | remaining activity at 3 µM (1PBC 3, 100 mV, read-out: fraction of unblocked current): 78.6% | remaining activity at 3 µM (1PBC 3, 120 mV, read-out: fraction of unblocked current): 80.1% | remaining activity at 3 µM (1PBC 3, 140 mV, read-out: fraction of unblocked current): 83.1% | remaining activity at 3 µM (1PBC 3, -20 mV, read-out: fraction of unblocked current): 81.1% | remaining activity at 3 µM (1PBC 3, -40 mV, read-out: fraction of unblocked current): 83.5% | remaining activity at 3 µM (1PBC 3, -60 mV, read-out: fraction of unblocked current): 84.9% | remaining activity at 3 µM (1PBC 3, -80 mV, read-out: fraction of unblocked current): 86.2% | remaining activity at 3 µM (1PBC 3, -100 mV, read-out: fraction of unblocked current): 87.3% | remaining activity at 3 µM (1PBC 3, -120 mV, read-out: fraction of unblocked current): 88.4% | remaining activity at 3 µM (1PBC 3, -140 mV, read-out: fraction of unblocked current): 89.4% | remaining activity at 10 µM (1PBC 10, 0 mV, read-out: fraction of unblocked current): 52.5% | remaining activity at 10 µM (1PBC 10, 20 mV, read-out: fraction of unblocked current): 48.7% | remaining activity at 10 µM (1PBC 10, 40 mV, read-out: fraction of unblocked current): 45.6% | remaining activity at 10 µM (1PBC 10, 60 mV, read-out: fraction of unblocked current): 43.7% | remaining activity at 10 µM (1PBC 10, 80 mV, read-out: fraction of unblocked current): 42.8% | remaining activity at 10 µM (1PBC 10, 100 mV, read-out: fraction of unblocked current): 43.3% | remaining activity at 10 µM (1PBC 10, 120 mV, read-out: fraction of unblocked current): 44.7% | remaining activity at 10 µM (1PBC 10, 140 mV, read-out: fraction of unblocked current): 45.8% | remaining activity at 10 µM (1PBC 10, -20 mV, read-out: fraction of unblocked current): 56.4% | remaining activity at 10 µM (1PBC 10, -40 mV, read-out: fraction of unblocked current): 60.6% | remaining activity at 10 µM (1PBC 10, -60 mV, read-out: fraction of unblocked current): 64.3% | remaining activity at 10 µM (1PBC 10, -80 mV, read-out: fraction of unblocked current): 67.5% | remaining activity at 10 µM (1PBC 10, -100 mV, read-out: fraction of unblocked current): 70.7% | remaining activity at 10 µM (1PBC 10, -120 mV, read-out: fraction of unblocked current): 73.2% | remaining activity at 10 µM (1PBC 10, -140 mV, read-out: fraction of unblocked current): 75.5% | remaining activity at 30 µM (1PBC 30, 0 mV, read-out: fraction of unblocked current): 27.4% | remaining activity at 30 µM (1PBC 30, 20 mV, read-out: fraction of unblocked current): 23.9% | remaining activity at 30 µM (1PBC 30, 40 mV, read-out: fraction of unblocked current): 21.7% | remaining activity at 30 µM (1PBC 30, 60 mV, read-out: fraction of unblocked current): 20.8% | remaining activity at 30 µM (1PBC 30, 80 mV, read-out: fraction of unblocked current): 20.1% | remaining activity at 30 µM (1PBC 30, 100 mV, read-out: fraction of unblocked current): 20.1% | remaining activity at 30 µM (1PBC 30, 120 mV, read-out: fraction of unblocked current): 21.6% | remaining activity at 30 µM (1PBC 30, 140 mV, read-out: fraction of unblocked current): 22.4% | remaining activity at 30 µM (1PBC 30, -20 mV, read-out: fraction of unblocked current): 30.9% | remaining activity at 30 µM (1PBC 30, -40 mV, read-out: fraction of unblocked current): 34.9%
Compound: N#Cc1c(C(F)(F)F)cc(O)n2c1nc1ccccc12 [1PBC]
